This passage reports EC50 results from patent US20240279278A1, “NMU RECEPTOR 2 AGONISTS” (Boehringer Ingelheim International GmbH, priority 2023, published 2024).

What all share (format): cell-based
The target of assay [1] is T1, human NMUR2 receptor (Homo sapiens, UniProt Q9GZQ4). Put plainly: IP1 Gq HTRF assay, activation of human NMUR2 in human plasma. The following applies: CHO-K1 cells expressing human NMUR2, 100% human plasma; read-out: EC50 (hNMUR2) human plasma. Also on record: expressed in transfected cells; host or cells: CHO-K1. Summed up: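 EC50 obtained via 4-parameter sigmoidal regression of HTRF IP-One signal (665 nm/620 nm), which falls as intracellular IP1 rises. Stimulation: 1 h, 37° C, peptides in human plasma plus 50 mM LiCl, 1% DMSO final, on NMUR2-expressing CHO-K1 cells, 8 concentrations.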

Assay [2] addresses T2, human NMUR1 receptor (Homo sapiens, UniProt Q9HB89).
T2 construct: expressed in transfected cells; host or cells: CHO-K1
T2 sequence (Q9HB89 1-426): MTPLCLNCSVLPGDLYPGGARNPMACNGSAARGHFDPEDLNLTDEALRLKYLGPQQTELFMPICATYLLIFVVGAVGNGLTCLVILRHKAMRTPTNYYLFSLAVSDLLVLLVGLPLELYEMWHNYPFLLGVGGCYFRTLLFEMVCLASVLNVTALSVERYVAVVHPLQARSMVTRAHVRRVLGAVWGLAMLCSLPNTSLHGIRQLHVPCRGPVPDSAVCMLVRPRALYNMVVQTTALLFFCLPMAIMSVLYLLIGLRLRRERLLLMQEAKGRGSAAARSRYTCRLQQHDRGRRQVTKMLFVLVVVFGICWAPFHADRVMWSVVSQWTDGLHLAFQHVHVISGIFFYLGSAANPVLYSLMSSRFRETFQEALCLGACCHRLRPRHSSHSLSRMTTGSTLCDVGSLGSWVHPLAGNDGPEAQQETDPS
Put plainly: IP1 Gq HTRF assay, activation of human NMUR1 in buffer. As to conditions: CHO-K1 cells expressing human NMUR1, stimulation buffer with 0.1% BSA; read-out: EC50 (hNMUR1) buffer. The text has this:
Example 3: IP1 Gq HTRF Assay Activation of Human NMUR2 or Human NMUR1 in Buffer Application of the Homogenous Time Resolved Fluorescence (HTRF) technology optimized for Gq coupled receptors has been described in detail in the Cisbio IP-One Gq kit manual. In brief, a FRET signal (FRET: fluorescence resonance energy transfer) is generated between the donor label of an IP-One antibody (anti-IP1-Tb) and the acceptor label of a tagged IP-One (IP1-d2). Agonism of a Gq coupled receptor increases intracellular IP-One, which competes with labeled IP-One and leads to a reduction of the FRET signal. Frozen stocks of CHO-K1 cells stably expressing the human NMUR1 or NMUR2 receptor were thawed and 5000 cells were seeded in culture medium (HAM'S F12, 10% FCS) into each well of a 384-well assay plate. After seeding, cells were incubated for 24 h in a humidified incubator at 37° C. and 5% CO2. Next, cells were washed once with 50 μL of wash buffer (20 mM Hepes, 1×HBSS, pH 7.4), followed by addition of either 10 μL of stimulation buffer (20 mM Hepes, 1×HBSS, 50 mM LiCl, 0.1% BSA, pH 7.4). Peptide agonists to be tested were dissolved in 100% DMSO and pre-diluted in stimulation buffer at a suitable concentration range for an 8 pt dose-response curve. 5 μL of peptide pre-dilution were then added to each well, followed by another 5 μL of stimulation buffer to give a final concentration of 1% DMSO. Samples were subsequently incubated for 1 hour in a humidified incubator at 37° C. After addition of 5 μL each of IP1-d2 and anti-IP1-Tb, samples were incubated for another 1 hour at room temperature and FRET signals (ratio 665 nm/620 nm) were measured. EC50 values were calculated by nonlinear regression using a 4-parameter sigmoidal curve fit.
In general terms: Time-resolved FRET reads energy transfer from a long-lived donor to a nearby acceptor.

Assay [3] concerns the target T1, human NMUR2 receptor. Put plainly: IP1 Gq HTRF assay, activation of human NMUR2 in buffer. Also on record: expressed in transfected cells; host or cells: CHO-K1. The following applies: CHO-K1 cells expressing human NMUR2, stimulation buffer with 0.1% BSA; read-out: EC50 (hNMUR2) buffer. An outline of the steps:
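IP-One HTRF competition (665/620 nm ratio) read after 1 h agonist exposure at 37 °C in pH 7.4 HEPES/HBSS stimulation buffer containing 50 mM LiCl, 0.1% BSA, 1% DMSO. Cells: CHO-K1 stably expressing human NMUR2 or NMUR1. EC50 by 4-parameter nonlinear regression of 8-point curves.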

SMILES strings stand for the structures. pEC50: −log10 of the molar value. Starred links: 1 amine or outer side, 2 acyl side, 3 side chain; linkers in the order of their positions; H or OH if unused. Non-standard residues stand in square brackets, D forms with d. Residues, ends and D or L forms follow the SMILES beside them. *: point of attachment. Pipz(1-CH2CO,4-CH2CH2NH) = O=C(CN1CCN(CCN[*:1])CC1)[*:2]; C18 diacid = O=C(O)CCCCCCCCCCCCCCCCC(=O)*; γGlu = O=C(O)[C@H](CCC(=O)[*:2])N[*:1]; 3Pal = N[C@@H](Cc1cccnc1)C(=O)O; NMeL = CN[C@@H](CC(C)C)C(=O)O; NMeA = CN[C@@H](C)C(=O)O; Nle = CCCC[C@H](N)C(=O)O; Sar = CNCC(=O)O A value given as a limit tells only on which side of the number the result lay.

Broadly, the pEC50 is the negative decadic logarithm of the EC50, by convention in mol/L.

T1 sequence (Q9GZQ4 whole entry): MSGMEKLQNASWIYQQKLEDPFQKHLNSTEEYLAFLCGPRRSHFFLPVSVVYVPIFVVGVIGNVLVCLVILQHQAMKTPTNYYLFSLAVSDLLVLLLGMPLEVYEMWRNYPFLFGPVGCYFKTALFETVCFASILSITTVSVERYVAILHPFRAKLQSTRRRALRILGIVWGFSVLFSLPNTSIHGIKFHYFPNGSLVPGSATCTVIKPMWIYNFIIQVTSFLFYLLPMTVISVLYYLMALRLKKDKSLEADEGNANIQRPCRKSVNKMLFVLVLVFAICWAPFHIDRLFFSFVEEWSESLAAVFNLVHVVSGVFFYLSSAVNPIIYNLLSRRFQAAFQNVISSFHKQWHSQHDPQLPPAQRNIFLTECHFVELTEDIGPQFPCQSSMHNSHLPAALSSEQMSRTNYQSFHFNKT

As for `CCCC[C@H](NC(=O)[C@H](CC(C)C)N(C)C(=O)[C@H](Cc1ccccc1)NC(=O)[C@H](Cc1ccc(O)cc1)NC(=O)CN1CCN(CCNC(=O)CN(C)C(=O)CN(C)C(=O)CN(C)C(=O)CN(C)C(=O)CN(C)C(=O)CN(C)C(=O)CN(C)C(=O)CN(C)C(=O)CN(C)C(=O)CN(C)C(=O)CN(C)C(=O)CN(C)C(=O)CN(C)C(=O)CN(C)C(=O)CN(C)C(=O)CC[C@H](NC(=O)CC[C@H](NC(=O)CC[C@H](NC(=O)CCCCCCCCCCCCCCCCC(=O)O)C(=O)O)C(=O)O)C(=O)O)CC1)C(=O)N[C@@H](Cc1cccnc1)C(=O)N(C)[C@@H](C)C(=O)N[C@@H](CCCNC(=N)N)C(=O)NCC(N)=O` [Compound 57, C18DA-gGlu3-Sar15-AEPipAc-Tyr-Phe-NMeLeu-Nle-3Pal-NMeAla-Arg-Gly-NH2] ({C18 diacid-γGlu-γGlu-γGlu}-[Sar][Sar][Sar][Sar][Sar][Sar][Sar][Sar][Sar][Sar][Sar][Sar][Sar][Sar][Sar][Pipz(1-CH2CO,4-CH2CH2NH)]YF[NMeL][Nle][3Pal][NMeA]RG-NH2), the negative logarithm of the EC50 (pEC50) in assay [1] is 6.29; in assay [2] it was less than 6.00; in assay [3], 6.96.
`CCCC[C@H](NC(=O)[C@H](CC(C)C)N(C)C(=O)[C@H](Cc1ccccc1)NC(=O)[C@H](Cc1ccc(O)cc1)NC(=O)CN1CCN(CCNC(=O)CN(C)C(=O)CN(C)C(=O)CN(C)C(=O)CN(C)C(=O)CN(C)C(=O)CN(C)C(=O)CN(C)C(=O)CN(C)C(=O)CN(C)C(=O)CN(C)C(=O)CN(C)C(=O)CN(C)C(=O)CC[C@H](NC(=O)CC[C@H](NC(=O)CC[C@H](NC(=O)CC[C@H](NC(=O)CCCCCCCCCCCCCCCCCCC(=O)O)C(=O)O)C(=O)O)C(=O)O)C(=O)O)CC1)C(=O)N[C@@H](CCCCN)C(=O)N(C)[C@@H](C)C(=O)N[C@@H](CCCNC(=N)N)C(=O)NCC(N)=O` [Compound 19, C20DA-gGlu4-Sar12-AEPipAc-Tyr-Phe-NMeLeu-Nle-Lys-NMeAla-Arg-Gly-NH2]: the pEC50 in assay [1] was 7.44; in assay [2], 5.85; in assay [3] it was 8.24.
For `CCCC[C@H](NC(=O)[C@H](CC(C)C)N(C)C(=O)[C@H](Cc1ccccc1)NC(=O)[C@H](Cc1ccc(O)cc1)NC(=O)CN1CCN(CCNC(=O)CN(C)C(=O)CN(C)C(=O)CN(C)C(=O)CN(C)C(=O)CN(C)C(=O)CN(C)C(=O)CN(C)C(=O)CN(C)C(=O)CN(C)C(=O)CN(C)C(=O)CN(C)C(=O)CN(C)C(=O)CN(C)C(=O)CN(C)C(=O)CN(C)C(=O)CC[C@H](NC(=O)CC[C@H](NC(=O)CC[C@H](NC(=O)CC[C@H](NC(=O)CCCCCCCCCCCCCCCCCCC(=O)O)C(=O)O)C(=O)O)C(=O)O)C(=O)O)CC1)C(=O)N[C@@H](CCN)C(=O)N1CCC[C@H]1C(=O)N[C@@H](CCCNC(=N)N)C(=O)NCC(N)=O` [Compound 4, C20DA-gGlu4-Sar15-AEPipAc-Tyr-Phe-NMeLeu-Nle-Dbu-Pro-Arg-Gly-NH2] (HELM PEPTIDE1{[O=C(O)CCCCCCCCCCCCCCCCCCC(=O)[*:2]].[gGlu].[gGlu].[gGlu].[gGlu].[Sar].[Sar].[Sar].[Sar].[Sar].[Sar].[Sar].[Sar].[Sar].[Sar].[Sar].[Sar].[Sar].[Sar].[Sar].[O=C(CN1CCN(CCN[*:1])CC1)[*:2]].Y.F.[meL].[Nle].[Dab].P.R.G.[am]}$$$$V2.0) the same measures were 8.24, 6.11 and 8.70.
For `CCCC[C@H](NC(=O)[C@H](CC(C)C)N(C)C(=O)[C@H](Cc1ccccc1)NC(=O)[C@H](Cc1ccc(O)cc1)NC(=O)CN1CCN(CCNC(=O)CN(C)C(=O)CN(C)C(=O)CN(C)C(=O)CN(C)C(=O)CN(C)C(=O)CN(C)C(=O)CN(C)C(=O)CN(C)C(=O)CN(C)C(=O)CN(C)C(=O)CN(C)C(=O)CN(C)C(=O)CC[C@H](NC(=O)CC[C@H](NC(=O)CC[C@H](NC(=O)CCCCCCCCCCCCCCCCCCC(=O)O)C(=O)O)C(=O)O)C(=O)O)CC1)C(=O)N[C@@H](CCN)C(=O)N(C)[C@@H](C)C(=O)N[C@@H](CCCNC(=N)N)C(=O)NCC(N)=O` [Compound 59, C20DA-gGlu3-Sar12-AEPipAc-Tyr-Phe-NMeLeu-Nle-Dbu-NMeAla-Arg-Gly-NH2], the pEC50 in assay [1] was 7.92; in assay [2], less than 6.00; in assay [3], 8.30.
`CCCC[C@H](NC(=O)[C@H](CC(C)C)N(C)C(=O)[C@H](Cc1ccccc1)NC(=O)[C@H](Cc1ccc(O)cc1)NC(=O)CN1CCN(CCNC(=O)CN(C)C(=O)CN(C)C(=O)CN(C)C(=O)CN(C)C(=O)CN(C)C(=O)CN(C)C(=O)CN(C)C(=O)CN(C)C(=O)CN(C)C(=O)CN(C)C(=O)CN(C)C(=O)CN(C)C(=O)CC[C@H](NC(=O)CC[C@H](NC(=O)CC[C@H](NC(=O)CC[C@H](NC(=O)CCCCCCCCCCCCCCCCC(=O)O)C(=O)O)C(=O)O)C(=O)O)C(=O)O)CC1)C(=O)N[C@@H](CCCNC(=N)N)C(=O)N1CCC[C@H]1C(=O)N[C@@H](CCCNC(=N)N)C(=O)NCC(N)=O` [Compound 2, C18DA-gGlu4-Sar12-AEPipAc-Tyr-Phe-NMeLeu-Nle-Arg-Pro-Arg-Gly-NH2]: the pEC50 in assay [1] is 8.43; in assay [2], 6.66; in assay [3], 8.96.
The corresponding values for `CCCC[C@H](NC(=O)[C@H](CC(C)C)N(C)C(=O)[C@H](Cc1ccccc1)NC(=O)[C@H](Cc1ccc(O)cc1)NC(=O)CN1CCN(C(=O)CN(C)C(=O)CN(C)C(=O)CN(C)C(=O)CN(C)C(=O)CN(C)C(=O)CN(C)C(=O)CN(C)C(=O)CN(C)C(=O)CN(C)C(=O)CN(C)C(=O)CN(C)C(=O)CN(C)C(=O)CN(C)C(=O)CN(C)C(=O)CN(C)C(=O)CC[C@H](NC(=O)CC[C@H](NC(=O)CC[C@H](NC(=O)CCCCCCCCCCCCCCCCC(=O)O)C(=O)O)C(=O)O)C(=O)O)CC1)C(=O)N[C@@H](CCN)C(=O)N(C)[C@@H](C)C(=O)N[C@@H](CCCNC(=N)N)C(=O)NCC(N)=O` [Compound 79, C18DA-gGlu3-Sar15-PipAc-Tyr-Phe-NMeLeu-Nle-Dbu-NMeAla-Arg-Gly-NH2] (HELM PEPTIDE1{[O=C(O)CCCCCCCCCCCCCCCCC(=O)[*:2]].[gGlu].[gGlu].[gGlu].[Sar].[Sar].[Sar].[Sar].[Sar].[Sar].[Sar].[Sar].[Sar].[Sar].[Sar].[Sar].[Sar].[Sar].[Sar].[O=C(CN1CCN([*:1])CC1)[*:2]].Y.F.[meL].[Nle].[Dab].[meA].R.G.[am]}$$$$V2.0) are 8.15, less than 6.00 and 8.89.
`CCCC[C@H](NC(=O)[C@H](CC(C)C)N(C)C(=O)[C@H](Cc1ccccc1)NC(=O)[C@H](Cc1ccc(O)cc1)NC(=O)CN1CCN(CCNC(=O)CN(C)C(=O)CN(C)C(=O)CN(C)C(=O)CN(C)C(=O)CN(C)C(=O)CN(C)C(=O)CN(C)C(=O)CN(C)C(=O)CN(C)C(=O)CN(C)C(=O)CN(C)C(=O)CN(C)C(=O)CC[C@H](NC(=O)CC[C@H](NC(=O)CC[C@H](NC(=O)CCCCCCCCCCCCCCCCC(=O)O)C(=O)O)C(=O)O)C(=O)O)CC1)C(=O)N(C)[C@@H](CCCNC(=N)N)C(=O)N(C)[C@@H](C)C(=O)N[C@@H](CCCNC(=N)N)C(=O)NCC(N)=O` [Compound 37, C18DA-gGlu3-Sar12-AEPipAc-Tyr-Phe-NMeLeu-Nle-NMeArg-NMeAla-Arg-Gly-NH2]: the figures for the pEC50 in assay [1], in assay [2] and in assay [3] were 7.57, 5.89 and 8.46, respectively.
